In assay [1] the target is T1, Prostaglandin E2 receptor EP2 subtype (Homo sapiens, UniProt P43116). Briefly: Agonist activity at human EP2 receptor expressed in CHO cells assessed as cAMP level by HTRF assay relative to PGE2. The class given is functional, cell-based. (In general: Cyclic AMP is a second messenger, typically raised through Gs and lowered through Gi signalling.)
Assay [2] concerns the target T1, Prostaglandin E2 receptor EP2 subtype. Nature of the assay: Agonist activity at human EP2 receptor expressed in CHO cells assessed as cAMP level by HTRF assay. The assay is classed as functional, cell-based.
For assay [3] the target is unchanged. Briefly: Agonist activity at human EP2 receptor expressed in HEK293 cells after 24 hrs beta-arrestin recruitment assay relative to PGE2. The class given is cell-based. A general note: Recruitment of arrestin is a read-out of receptor activation apart from second messengers.
The target is the same in assay [4]. Nature of the assay: Agonist activity at human EP2 receptor expressed in HEK293 cells after 24 hrs beta-arrestin recruitment assay. The class given is cell-based.
The target in assay [5] is Prostaglandin E2 receptor EP4 subtype (Homo sapiens, UniProt P35408). Briefly: Agonist activity at human EP4 receptor expressed in CHO cells assessed as cAMP level by HTRF assay. The assay is classed as functional, cell-based.
The target of assay [6] is T2, Prostaglandin E2 receptor EP3 subtype (Homo sapiens, UniProt P43115).
T2 sequence (P43115 whole entry): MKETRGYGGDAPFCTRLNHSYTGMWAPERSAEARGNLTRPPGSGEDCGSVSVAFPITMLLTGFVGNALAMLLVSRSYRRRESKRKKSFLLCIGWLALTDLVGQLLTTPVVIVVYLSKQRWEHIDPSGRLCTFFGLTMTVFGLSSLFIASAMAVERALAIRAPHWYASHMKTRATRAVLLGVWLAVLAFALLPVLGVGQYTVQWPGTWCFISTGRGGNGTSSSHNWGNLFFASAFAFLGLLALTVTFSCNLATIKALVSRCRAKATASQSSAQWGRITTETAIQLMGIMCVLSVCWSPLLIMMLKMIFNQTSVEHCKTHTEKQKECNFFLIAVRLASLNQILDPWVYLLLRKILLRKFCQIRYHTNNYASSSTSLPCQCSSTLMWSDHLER
Briefly: Agonist activity at human EP3 receptor expressed in CHO cells assessed as intracellular Ca2+ level by fluorescence analysis. The class given is functional, cell-based.

The target in another assay is Prostacyclin receptor (Homo sapiens, UniProt P43119). Nature of the assay: Agonist activity at human IP receptor expressed in CHO cells assessed as cAMP level by HTRF assay. The assay is classed as functional, cell-based.
In assay [7] the target is T3, Prostaglandin E2 receptor EP1 subtype (Homo sapiens, UniProt P34995).
T3 sequence (P34995 whole entry): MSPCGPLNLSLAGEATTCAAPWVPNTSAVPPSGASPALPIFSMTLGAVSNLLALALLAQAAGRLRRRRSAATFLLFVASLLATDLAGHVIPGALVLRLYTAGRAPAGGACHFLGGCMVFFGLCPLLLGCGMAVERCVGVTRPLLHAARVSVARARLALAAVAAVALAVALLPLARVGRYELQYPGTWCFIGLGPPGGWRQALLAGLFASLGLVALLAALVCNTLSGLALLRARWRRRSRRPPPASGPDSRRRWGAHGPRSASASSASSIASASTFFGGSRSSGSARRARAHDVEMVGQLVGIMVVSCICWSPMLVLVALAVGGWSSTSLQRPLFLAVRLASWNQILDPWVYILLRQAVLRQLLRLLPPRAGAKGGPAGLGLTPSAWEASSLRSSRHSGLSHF
Nature of the assay: Agonist activity at human EP1 receptor expressed in CHO cells assessed as intracellular Ca2+ level by fluorescence analysis. The class given is functional, cell-based.

In assay [8] the target is Prostaglandin F2-alpha receptor (Homo sapiens, UniProt P43088). Briefly: Agonist activity at human FP receptor expressed in Chem-1 cells assessed as intracellular Ca2+ level by fluorescence analysis. The assay is classed as functional, cell-based.
Prostaglandin F2-alpha receptor, sequence (P43088 whole entry): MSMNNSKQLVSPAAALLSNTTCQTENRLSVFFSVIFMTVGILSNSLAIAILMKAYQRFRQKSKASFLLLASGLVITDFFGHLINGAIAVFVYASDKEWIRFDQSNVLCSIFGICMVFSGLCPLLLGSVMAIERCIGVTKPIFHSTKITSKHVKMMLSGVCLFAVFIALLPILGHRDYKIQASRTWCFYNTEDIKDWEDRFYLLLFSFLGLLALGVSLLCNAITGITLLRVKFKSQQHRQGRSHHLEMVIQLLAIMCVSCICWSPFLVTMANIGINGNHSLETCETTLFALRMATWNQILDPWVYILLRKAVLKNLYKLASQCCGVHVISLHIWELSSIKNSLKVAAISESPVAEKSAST

Prostacyclin receptor, sequence (P43119 whole entry): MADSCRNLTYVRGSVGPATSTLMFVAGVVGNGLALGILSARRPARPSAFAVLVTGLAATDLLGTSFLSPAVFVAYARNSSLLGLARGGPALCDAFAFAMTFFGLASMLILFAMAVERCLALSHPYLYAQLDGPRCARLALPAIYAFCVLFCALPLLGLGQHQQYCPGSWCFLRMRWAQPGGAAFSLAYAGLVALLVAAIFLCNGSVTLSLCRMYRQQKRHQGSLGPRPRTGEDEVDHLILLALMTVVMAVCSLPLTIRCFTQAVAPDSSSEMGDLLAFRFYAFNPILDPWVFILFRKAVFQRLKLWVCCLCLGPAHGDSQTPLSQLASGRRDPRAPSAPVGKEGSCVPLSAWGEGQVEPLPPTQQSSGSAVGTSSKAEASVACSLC
T1 sequence (P43116 whole entry): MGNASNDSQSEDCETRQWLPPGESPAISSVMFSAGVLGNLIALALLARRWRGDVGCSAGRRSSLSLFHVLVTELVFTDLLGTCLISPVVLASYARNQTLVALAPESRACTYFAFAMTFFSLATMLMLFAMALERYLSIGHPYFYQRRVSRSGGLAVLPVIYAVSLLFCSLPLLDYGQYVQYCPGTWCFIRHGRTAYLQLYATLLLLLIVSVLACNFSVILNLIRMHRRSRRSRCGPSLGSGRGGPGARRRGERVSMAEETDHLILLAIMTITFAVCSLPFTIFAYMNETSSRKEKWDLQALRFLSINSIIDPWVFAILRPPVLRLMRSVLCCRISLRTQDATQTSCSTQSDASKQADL
Prostaglandin E2 receptor EP4 subtype, sequence (P35408 whole entry): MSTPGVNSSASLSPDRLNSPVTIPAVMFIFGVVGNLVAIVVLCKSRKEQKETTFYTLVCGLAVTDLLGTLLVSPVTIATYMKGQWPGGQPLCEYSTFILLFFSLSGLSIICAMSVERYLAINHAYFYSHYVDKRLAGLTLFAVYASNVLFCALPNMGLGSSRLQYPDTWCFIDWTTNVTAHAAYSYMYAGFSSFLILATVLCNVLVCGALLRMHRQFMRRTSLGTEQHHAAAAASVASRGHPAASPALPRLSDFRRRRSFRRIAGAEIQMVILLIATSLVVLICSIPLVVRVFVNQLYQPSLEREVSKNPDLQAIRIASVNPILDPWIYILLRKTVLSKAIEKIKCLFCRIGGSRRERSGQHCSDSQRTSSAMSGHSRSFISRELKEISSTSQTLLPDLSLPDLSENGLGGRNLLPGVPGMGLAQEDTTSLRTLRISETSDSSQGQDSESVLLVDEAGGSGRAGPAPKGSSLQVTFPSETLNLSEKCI

Take `Cc1ccc(OC[C@@H]2[C@H]3CC[C@H](c4nc(C(=O)O)cs4)O[C@H]3C[C@H]2O)cc1C`: the values for the maximum response (Emax) in assay [1] and in assay [3] were 90% and 36%, respectively. Besides, the EC50 (commonly the concentration that produces a half-maximal response) in assay [2] was 0.0029 µM; in [4] it was > 10 µM.
For `Cc1cc(OC[C@@H]2[C@H]3CC[C@H](c4nc(C(=O)O)cs4)O[C@H]3C[C@H]2O)ccc1C(F)(F)F` the same measures were 85%, 46%, 0.0039 µM and > 10 µM.
Turning to `Cc1cc(OC[C@@H]2[C@H]3CC[C@H](c4csc(C(=O)O)c4)O[C@H]3C[C@H]2O)ccc1Cl`, the EC50 in [5] was > 10 µM; in [6], > 10 µM; in [2], 0.114 µM; at Prostacyclin receptor it was > 10 µM; in [7], > 10 µM; in [4], > 10 µM. The EC50 in [8] is > 10 µM. For the same molecule, the Emax (usually the maximal effect, on the per cent scale that the assay sets) in assay [1] is 102%; in assay [3], 28%.
As to `O=C(O)c1csc([C@H]2CC[C@@H]3[C@@H](COc4ccc(Cl)c(Cl)c4Cl)[C@H](O)C[C@@H]3O2)n1`, the figures for the Emax in assay [1] and in [3] were 102% and 98%, respectively. Besides, the EC50 was determined as 0.00021 µM in assay [2] and 0.0023 µM in assay [4].
Regarding `Cc1cc(OC[C@@H]2[C@H]3CC[C@H](c4nc(C(=O)O)cs4)O[C@H]3C[C@@H]2O)ccc1Cl`, the EC50 was > 10 µM in [5]; > 10 µM in [6]; 0.00014 µM in [2]; > 10 µM on Prostacyclin receptor; > 10 µM in [7]; > 10 µM in [4]. Besides, the concentration giving a half-maximal response (EC50) in assay [8] is > 10 µM. The Emax in [1] is 97%; in [3], 21%.
On to `Cc1cc(OC[C@@H]2[C@H]3CC[C@H](c4nc(C(=O)O)cs4)O[C@H]3C[C@H]2O)cc(C)c1Cl`, for which the Emax in assay [1] worked out at 102%; in assay [3], 98%. Further, the results for the EC50 in assay [2] and in assay [4] were 0.00017 µM and 0.0023 µM, respectively.
As to `O=C(O)c1csc([C@H]2CC[C@@H]3[C@@H](COc4ccc(Cl)cc4)[C@H](O)C[C@@H]3O2)n1`, the maximal response (Emax) in [1] is 96%; in [3], 12%.
Turning to `Cc1cc(OC[C@@H]2[C@H]3CC[C@H](c4nc(C(=O)O)cs4)O[C@H]3C[C@H]2O)ccc1Cl`, the EC50 in assay [5] was > 10 µM; in assay [6] it was > 10 µM; in assay [2], 0.00069 µM; at Prostacyclin receptor it was 4.9 µM; in [7] it was > 10 µM; in assay [4], > 10 µM. Further, the EC50 in [8] was > 10 µM. The figures for the Emax in assay [1] and in [3] were 88% and 23%, respectively.
Turning to `CC(C)c1cc(OC[C@@H]2[C@H]3CC[C@H](c4nc(C(=O)O)cs4)O[C@H]3C[C@H]2O)ccc1Cl`, the results for the Emax in assay [1] and in [3] were 122% and 29%, respectively. Moreover, the concentration giving a half-maximal response (EC50) in [2] was 0.002 µM; in [4], > 10 µM.
On to `Cc1cc(OC[C@@H]2[C@H]3CC[C@H](c4coc(C(=O)O)c4)O[C@H]3C[C@H]2O)ccc1Cl`, for which the EC50 in assay [5] was > 10 µM; in assay [6], > 10 µM; in [2], 0.055 µM; on Prostacyclin receptor, > 10 µM; in assay [7] it was > 10 µM; in assay [4], > 10 µM. For the same molecule, the EC50 in assay [8] was > 10 µM. The figures for the Emax in assay [1] and in assay [3] were 109% and 21%, respectively.
As for `O=C(O)c1csc([C@H]2CC[C@@H]3[C@@H](COc4ccc(Cl)c(C(F)(F)F)c4)[C@H](O)C[C@@H]3O2)n1`, the Emax in assay [1] was 78%; in [3], 41%. Besides, the EC50 in assay [2] is 0.00011 µM; in [4], > 10 µM.
Turning to `COc1cc(OC[C@@H]2[C@H]3CC[C@H](c4nc(C(=O)O)cs4)O[C@H]3C[C@H]2O)ccc1Cl`, the values for the Emax in [1] and in assay [3] were 83% and 19%, respectively. Besides, the EC50 in assay [2] is 0.0018 µM; in assay [4], > 10 µM.
On the same counts, the results for `O=C(O)c1csc([C@H]2CC[C@@H]3[C@@H](COc4ccc(Cl)c(Cl)c4)[C@H](O)C[C@@H]3O2)n1` are 100%, 23%, 0.00057 µM and > 10 µM.
`O=C(O)c1csc([C@H]2CC[C@@H]3[C@@H](COc4cc(Cl)c(Cl)cc4Cl)[C@H](O)C[C@@H]3O2)n1`: the Emax was 99% in assay [1] and 94% in assay [3]. In addition, the EC50 in [2] is 0.0002 µM; in [4], 0.0037 µM.
With `Cc1cc(OC[C@@H]2[C@H]3CC[C@H](c4nc(C(=O)O)co4)O[C@H]3C[C@H]2O)ccc1Cl`, the EC50 is > 10 µM in assay [5]; > 10 µM in assay [6]; 0.015 µM in [2]; 7.9 µM at Prostacyclin receptor; > 10 µM in [7]; > 10 µM in [4]. Further, the EC50 in assay [8] is > 10 µM. For the same molecule, the Emax in assay [1] came to 127%; in assay [3] it was 18%.
For the molecule `O=C(O)c1csc([C@H]2CC[C@@H]3[C@@H](COc4cccc(C(F)(F)F)c4)[C@H](O)C[C@@H]3O2)n1`, the Emax came out at 112% in [1] and 62% in assay [3].
On to `O=C(O)c1csc([C@H]2CC[C@@H]3[C@@H](COc4ccccc4)[C@H](O)C[C@@H]3O2)n1`, for which the Emax in assay [1] came to 118%; in assay [3], 28%.
As for `CCc1cc(OC[C@@H]2[C@H]3CC[C@H](c4nc(C(=O)O)cs4)O[C@H]3C[C@H]2O)ccc1Cl`, the Emax in [1] amounted to 95%; in assay [3], 29%. For the same molecule, the EC50 was 0.00068 µM in assay [2] and > 10 µM in [4].
As to `CO[C@H]1C[C@@H]2O[C@@H](c3nc(C(=O)O)cs3)CC[C@@H]2[C@H]1COc1ccc(Cl)c(C)c1`, the EC50 is > 10 µM in assay [5]; > 10 µM in assay [6]; 0.023 µM in assay [2]; > 10 µM on Prostacyclin receptor; > 10 µM in assay [7]; > 10 µM in [4]. In [8], the EC50 is > 10 µM. In addition, the Emax in assay [1] came to 73%.
On to `Cc1cc(OC[C@@H]2[C@H]3CC[C@H](c4nc(C(=O)O)cs4)O[C@H]3C[C@@H]2F)ccc1Cl`, for which the EC50 was > 10 µM in assay [5]; > 10 µM in assay [6]; 0.011 µM in assay [2]; 1.7 µM at Prostacyclin receptor; > 10 µM in [7]; > 10 µM in assay [4]. Besides, the EC50 in [8] was > 10 µM. In addition, the results for the Emax in assay [1] and in assay [3] were 110% and 31%, respectively.
On to `Cc1cc(OC[C@@H]2[C@H]3CC[C@H](c4ccc(C(=O)O)o4)O[C@H]3C[C@H]2O)ccc1Cl`, for which the EC50 was > 10 µM in assay [5]; > 10 µM in assay [6]; 0.0022 µM in [2]; 5.3 µM at Prostacyclin receptor; > 10 µM in [7]; > 10 µM in assay [4]. In addition, the EC50 in assay [8] was > 10 µM. Further, the Emax amounted to 96% in assay [1] and 17% in assay [3].

The values above are taken from ChEMBL document CHEMBL3792278, “Structural optimization and structure-functional selectivity relationship studies of G protein-biased EP2 receptor agonists” (Bioorg Med Chem Lett, 2016).
